Here are results for 1 molecule from BindingDB's records for doi:10.1021/jm00143a003 (1982).

The experiment deals with Spermine synthase (Rattus norvegicus). Kind of experiment: Inhibitory activity against spermine synthase.

`C[S+](C[C@H]1O[C@H](n2cnc3c(N)ncnc32)[C@H](O)[C@@H]1O)C(CCN)CCCCCN` (stereo partly specified) displayed an IC50 of 80 µM.
